Consider one compound from patent US9474730B2, “Methods and compositions for use with K-ras mediated disorders” (Board of Regents of the University of Texas System, priority 2012, dated 2016).

Molecules are shown by their SMILES. Where a name gives a salt, the structure may show the parent alone.

In assay [1] the test system is human oral cancer cells, PC3 prostate cancer cells and MDCK cells. As to conditions: cited from earlier work.
The target in assay [2] is T1, GFP-CTK (mGFP-tagged C-terminal region of K-ras) in MDCK cells (Homo sapiens, UniProt P01116).
T1 construct: hypervariable region of K-ras (amino acids 166-188) cloned onto the carboxy terminus of GFP; expressed in transfected cells
T1 sequence (P01116 166-188 isoform P01116-2 limits assumed): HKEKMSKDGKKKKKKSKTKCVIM
The assay is described as follows: High throughput cell-based screen: plasma membrane localization of GFP-CTK. Details: species or system canine. As to conditions: fendiline HCl 4 ug/ml, 48 h, MDCK. The method, then: FIG. 1: Illustrates results of a high throughput cell-based screening of chemical libraries: Madin-Darby Canine Kidney epithelial cells (MDCK) expressing monomeric green fluorescent protein (mGFP)-tagged C-terminal region of K- or H-ras (GFP-CTK and GFP-CTH) were seeded in 96 well plates and treated with drug libraries for 48 h. Cells were then fixed with paraformaldehyde and imaged by BD Pathway Imager in confocal mode; shown are representative images of cells treated with vehicle, […], and 10 μM FTI-276; wherein experimentation was performed in accordance with principles described herein;
In accordance with some embodiments described herein, wild type MDCK cells or MDCK cells expressing monomeric green fluorescent protein (mGFP)-tagged C-terminal region of K-ras or H-ras (GFP-CTK and GFP-CTH respectively) were seeded in triplicate in 96 well plates (Matrical) at a density of 30,000 cells/well and incubated for 24 h at 37° C. Compounds were individually added to test cells at a concentration of 4 μg/mL (concentration of DMSO 1%) and incubated for a further 48 h.
Cells were then fixed with 4% paraformaldehyde and stored in PBS at 4° C. until imaged. Plates were imaged using a BD Pathway High-Throughput Bioimager. Images were acquired by a 3×3 montage with 20× objective lens using GFP-confocal mode. […]

Assay [3] deals with BHK cells expressing constitutively active CRaf (FLAG-C-Raf-DD-CAAX). The assay is described as follows: Signaling in cells expressing constitutively active CRaf, Western blotting. Format: cell-based, hamster. As to conditions: 6 μg/mL, 48 h, serum starved BHK cells. The method, then: FIG. 6: Illustrates that fendiline HCl inhibition occurs at the level of Ras: Whole cell lysates from serum starved BHK cells expressing vector control, FLAG-C-Raf-DD-CAAX or Myc-B-Raf V600E treated with vehicle or fendiline HCl (6 μg/mL) for 48 h were analyzed by quantitative Western blotting. Representative Western blots of c-Raf, pMEK, pERK and Actin (loading control) are shown. Data is shown as mean±SEM from 3-4 independent experiments. Statistical significance was calculated using one way ANOVA and Student's T-test. (*=p<0.05), wherein experimentation was performed in accordance with principles described herein;
(§1) Preparation of whole-cell lysates: cells were lysed in Buffer B (50 mM Tris [pH 7.5], 75 mM NaCl, 25 mM NaF, 5 mM MgCl2, 5 mM EGTA, 1 mM dithiothreitol, 100 μM NaVO4, 1% Nonidet P-40 plus protease inhibitors). Cellular fractionation: cells were incubated in Buffer A (10 mm Tris-HCl, pH 7.5, 25 mm NaF, 5 mm MgCl2, 1 mm EGTA, 1 mm dithiothreitol, 100 μm NaVO4 plus protease inhibitors) for 30 minutes on ice and lysed by passing through a 27 G needle 30 times. The post nuclear supernatant was centrifuged at 100,000 g for 30 minutes and the membrane pellet was resuspended in Buffer A containing 1% Triton X-100.
(§2) Quantification of intensities was performed using FluorChemQ software.

Assay [4] relates to cells expressing constitutively active N-Ras. The assay is described as follows: Signaling downstream of oncogenic N-ras. As to conditions: data not shown. Format: cell-based. The method, then: as §1, §2
Assay [5] concerns the target T2, GFP-H-rasG12V in MDCK or BHK cells (Homo sapiens, UniProt P01112, G12V).
T2 construct: MDCK and BHK cells expressing GFP-tagged full length constitutively active Ras (G12V) proteins; expressed in transfected cells
The assay is described as follows: Cellular fractionation (P100/S100) with quantitative Western blotting, GFP-H-rasG12V. As to conditions: 4 μg/mL for MDCK and 6 μg/mL for BHK, 48 hours, vs vehicle. Format: cell-based, canine (MDCK), hamster (BHK). The method, then:
. Following treatment, membrane (P100) and soluble (S100) protein fractions were prepared and analyzed by quantitative Western blotting. Shown are representative Western blots (showing GFP-Ras) of membrane and soluble protein fractions from 3 independent experiments.
as §1, §2
On the technique in general: A western blot detects proteins with antibodies after separation by electrophoresis.

Regarding `CC(NCCC(c1ccccc1)c1ccccc1)c1ccccc1` (centres unmarked) [fendiline HCl], the “intracellular Ca2+” value in assay [1] is listed as “increase intracellular Ca^2+”. In addition, the “localization of GFP-CTK” value in assay [2] was “specifically affected localization of GFP-CTK”. Also, in assay [3], the “signaling downstream of constitutively active CRaf” value is reported as “had no effect on signaling downstream of constitutively active CRaf”. In assay [4], the “signaling downstream of oncogenic N-ras” value is listed as “had no effect on signaling downstream of oncogenic N-ras”. In addition, in assay [5], the “localization of GFP-H-rasG12V (fractionation)” value is listed as “does not alter the localization of GFP-H-rasG12V”.
